Laboratory results as given in patent US20260297118A1, “SUBSTITUTED PYRIMIDINONE AND AZAPYRIMIDINONE COMPOUNDS, COMPOSITIONS, AND USES THEREOF” (LAKEWOOD AMEDEX, INC., priority 2023, published 2026).

What was measured:
Assay type in all cases: cell-based
Escherichia coli (0102) = assay: MIC, broth microdilution, Escherichia coli (0102); details: pH 4-5, 18 to 24 hours
Description: (§1) MIC testing is conducted using the broth (Mueller Hinton Broth) microdilution procedures relevant to each organism group as established by the Clinical and Laboratory Standards Institute (CLSI; 3-7). MIC plates are prepared in accordance with CLSI (3-7). To prepare the test plates, automated liquid handlers are used to conduct serial dilutions and liquid transfers. Automated liquid handlers utilized in this study include the Multidrop 384 (Labsystems, Helsinki, Finland) and the Biomek 2000 (Beckman Coulter, Fullerton CA). The solution is diluted to desired pH using 1 M Citric Acid or 1 M NaOH buffer. A standardized inoculum of each test organism is prepared per CLSI methods (3, 5-7) to equal a 0.5 McFarland standard in the appropriate media followed by an additional 1:20 dilution (1:10 for anaerobes).
(§2) The plates are then inoculated with 10 μL of the diluted 0.5 McFarland suspension using the Biomek 2000 from low to high drug concentration, resulting in a final concentration of approximately 5×10^5 CFU/mL per well. An un-inoculated plate is incubated for the purpose of assessing solubility of the drug in the test media. The plates are stacked 3 to 4 high, covered with a sterile lid on the top plate, and incubated for 18 to 24 hours according to CLSI. The MIC is recorded as the lowest concentration of respective compound that inhibited visible growth of the organism.

Escherichia coli (6260) = assay: MIC, broth microdilution, Escherichia coli (6260); details: pH 4-5, 18 to 24 hours
Description: as §1, §2

Escherichia coli (6098) = assay: MIC, broth microdilution, Escherichia coli (6098); details: pH 4-5, 18 to 24 hours
Description: as §1, §2

Escherichia coli (6258) = assay: MIC, broth microdilution, Escherichia coli (6258); details: pH 4-5, 18 to 24 hours
Description: as §1, §2

Escherichia coli (6259) = assay: MIC, broth microdilution, Escherichia coli (6259); details: pH 4-5, 18 to 24 hours
Description: as §1, §2

[1] = tested on: Pseudomonas aeruginosa (0103); assay: MIC, broth microdilution, Pseudomonas aeruginosa (0103); details: pH 4-5, 18 to 24 hours
Description: as §1, §2

[2] = tested on: Pseudomonas aeruginosa (6160); assay: MIC, broth microdilution, Pseudomonas aeruginosa (6160); details: pH 4-5, 18 to 24 hours
Description: as §1, §2

[3] = tested on: Pseudomonas aeruginosa (6234); assay: MIC, broth microdilution, Pseudomonas aeruginosa (6234); details: pH 4-5, 18 to 24 hours
Description: as §1, §2

[4] = tested on: Pseudomonas aeruginosa (6326); assay: MIC, broth microdilution, Pseudomonas aeruginosa (6326); details: pH 4-5, 18 to 24 hours
Description: as §1, §2

[5] = tested on: Pseudomonas aeruginosa (6328); assay: MIC, broth microdilution, Pseudomonas aeruginosa (6328); details: pH 4-5, 18 to 24 hours
Description: as §1, §2

[6] = tested on: Staphylococcus aureus (43330); assay: MIC, broth microdilution, Staphylococcus aureus (43330); details: pH 3, Mueller Hinton Broth, 18 to 24 hours, read-out: MIC
Description: as §1, §2

Escherichia coli (25922) = assay: MIC, broth microdilution, Escherichia coli (25922); details: pH 3, Mueller Hinton Broth, 18 to 24 hours, read-out: MIC
Description: as §1, §2

[7] = tested on: Pseudomonas aeruginosa (27853); assay: MIC, broth microdilution, Pseudomonas aeruginosa (27853); details: pH 3, Mueller Hinton Broth, 18 to 24 hours, read-out: MIC
Description: as §1, §2

Candida albicans (22972) = assay: MIC, broth microdilution, Candida albicans (22972); details: pH 3, Mueller Hinton Broth, 18 to 24 hours, read-out: MIC
Description: as §1, §2

E. faecalis ATCC-29212 = assay: MIC, broth microdilution, E. faecalis ATCC-29212; set-up: unit not given beside the values; details: E. faecalis ATCC-29212, Gram +ve; pH 3; 18 to 24 hours
Description: as §1, §2

E. faecalis MMX-3353 = assay: MIC, broth microdilution, E. faecalis MMX-3353; details: E. faecalis MMX-3353, Gram +ve; pH 3; 18 to 24 hours
Description: as §1, §2

E. faecium ATCC-35667 = assay: MIC, broth microdilution, E. faecium ATCC-35667; details: E. faecium ATCC-35667, Gram +ve; pH 3; 18 to 24 hours
Description: as §1, §2

E. faecium MMX-3355 = assay: MIC, broth microdilution, E. faecium MMX-3355; set-up: unit not given beside the values; details: E. faecium MMX-3355, Gram +ve; pH 3; 18 to 24 hours
Description: as §1, §2

S. agalactiae ATCC-13813 = assay: MIC, broth microdilution, S. agalactiae ATCC-13813; set-up: unit not given beside the values; details: S. agalactiae ATCC-13813, Gram +ve; pH 3; 18 to 24 hours
Description: as §1, §2

S. aureus ATCC -3591 = assay: MIC, broth microdilution, S. aureus ATCC -3591; set-up: unit not given beside the values; details: S. aureus ATCC -3591, Gram +ve; pH 3; 18 to 24 hours
Description: as §1, §2

S. aureus ATCC-29213 = assay: MIC, broth microdilution, S. aureus ATCC-29213; set-up: unit not given beside the values; details: S. aureus ATCC-29213, Gram +ve; pH 3; 18 to 24 hours
Description: as §1, §2

[8] = tested on: S. dysgalactiae ATCC-6644; assay: MIC, broth microdilution, S. dysgalactiae ATCC-6644; set-up: unit not given beside the values; details: S. dysgalactiae ATCC-6644, Gram +ve; pH 3; 18 to 24 hours
Description: as §1, §2

[9] = tested on: S. haemolyticus ATCC-29970; assay: MIC, broth microdilution, S. haemolyticus ATCC-29970; details: S. haemolyticus ATCC-29970, Gram +ve; pH 3; 18 to 24 hours
Description: as §1, §2

S. pyogenes ATCC-49399 = assay: MIC, broth microdilution, S. pyogenes ATCC-49399; set-up: unit not given beside the values; details: S. pyogenes ATCC-49399, Gram +ve; pH 3; 18 to 24 hours
Description: as §1, §2

[10] = tested on: S. saprophyticus ATCC-49907; assay: MIC, broth microdilution, S. saprophyticus ATCC-49907; set-up: unit not given beside the values; details: S. saprophyticus ATCC-49907, Gram +ve; pH 3; 18 to 24 hours
Description: as §1, §2

A. baumannii ATCC-19606 = assay: MIC, broth microdilution, A. baumannii ATCC-19606; set-up: unit not given beside the values; details: A. baumannii ATCC-19606, Gram −ve; pH 3; 18 to 24 hours
Description: as §1, §2

[11] = tested on: A. radioresistens MMX-8551; assay: MIC, broth microdilution, A. radioresistens MMX-8551; set-up: unit not given beside the values; details: A. radioresistens MMX-8551, Gram −ve; pH 3; 18 to 24 hours
Description: as §1, §2

C. freundii CDC-0157 = assay: MIC, broth microdilution, C. freundii CDC-0157; set-up: unit not given beside the values; details: C. freundii CDC-0157, Gram −ve; pH 3; 18 to 24 hours
Description: as §1, §2

C. striatum ATCC-6940 = assay: MIC, broth microdilution, C. striatum ATCC-6940; details: C. striatum ATCC-6940, Gram +ve; pH 3; 18 to 24 hours
Description: as §1, §2

E. cloacae ATCC BAA-2468 = assay: MIC, broth microdilution, E. cloacae ATCC BAA-2468; set-up: unit not given beside the values; details: E. cloacae ATCC BAA-2468, Gram −ve; pH 3; 18 to 24 hours
Description: as §1, §2

E. coli ATCC-25922 = assay: MIC, broth microdilution, E. coli ATCC-25922; set-up: unit not given beside the values; details: E. coli ATCC-25922, Gram −ve; pH 3; 18 to 24 hours
Description: as §1, §2

E. coli MMX-8870 = assay: MIC, broth microdilution, E. coli MMX-8870; details: E. coli MMX-8870, Gram −ve; pH 3; 18 to 24 hours
Description: as §1, §2

H. influenzae ATCC-49247 = assay: MIC, broth microdilution, H. influenzae ATCC-49247; set-up: unit not given beside the values; details: H. influenzae ATCC-49247, Gram −ve; pH 3; 18 to 24 hours
Description: as §1, §2

[12] = tested on: K. pneumoniae ATCC BAA-2146; assay: MIC, broth microdilution, K. pneumoniae ATCC BAA-2146; set-up: unit not given beside the values; details: K. pneumoniae ATCC BAA-2146, Gram −ve; pH 3; 18 to 24 hours
Description: as §1, §2

K. pneumoniae ATCC-43816 = assay: MIC, broth microdilution, K. pneumoniae ATCC-43816; set-up: unit not given beside the values; details: K. pneumoniae ATCC-43816, Gram −ve; pH 3; 18 to 24 hours
Description: as §1, §2

M. morganii CDC-0519 = assay: MIC, broth microdilution, M. morganii CDC-0519; set-up: unit not given beside the values; details: M. morganii CDC-0519, Gram −ve; pH 3; 18 to 24 hours
Description: as §1, §2

P. aeruginosa ATCC-27853 = assay: MIC, broth microdilution, P. aeruginosa ATCC-27853; set-up: unit not given beside the values; details: P. aeruginosa ATCC-27853, Gram −ve; pH 3; 18 to 24 hours
Description: as §1, §2

P. mirabilis CDC-0155 = assay: MIC, broth microdilution, P. mirabilis CDC-0155; set-up: unit not given beside the values; details: P. mirabilis CDC-0155, Gram −ve; pH 3; 18 to 24 hours
Description: as §1, §2

Measured: MIC

CCCCOP(=O)(O)OC[C@H]1O[C@@H](n2ccc(N)nc2=O)[C@H](OC)[C@@H]1O [R-5, (2R,3S,4R,5R)-5-(4-amino-2-oxopyrimidin-1(2H)-yl)-3-hydroxy-4-methoxy-tetrahydrofuran-2-methyl butyl phosphate]
100 mg/mL: Escherichia coli (6260) | Escherichia coli (6098) | Escherichia coli (6258)
50 mg/mL: Escherichia coli (0102) | Escherichia coli (6259)
25 mg/mL: [1] | [2] | [3] | [4] | [5]

CCCCOP(=O)(O)OC[C@H]1O[C@@H](n2ccc(N)nc2=O)C(F)(F)[C@@H]1O [LAI-006, ((2R,3R,5R)-5-(4-amino-2-oxopyrimidin-1(2H)-yl)-4,4-difluoro-3-hydroxytetrahydrofuran-2-yl)methyl butyl hydrogen phosphate]
0.05: [8]
3.13: E. faecalis MMX-3353 | E. faecium MMX-3355 | S. aureus ATCC -3591 | C. freundii CDC-0157 | M. morganii CDC-0519 | P. mirabilis CDC-0155
0.6 mg/mL: Escherichia coli (25922)
0.39: E. faecalis ATCC-29212 | S. pyogenes ATCC-49399 | A. baumannii ATCC-19606 | [11] | E. cloacae ATCC BAA-2468 | E. coli ATCC-25922
1.56: E. faecium ATCC-35667 | S. aureus ATCC-29213
0.78: C. striatum ATCC-6940 | E. coli MMX-8870 | H. influenzae ATCC-49247 | [12] | K. pneumoniae ATCC-43816 | P. aeruginosa ATCC-27853
2.3 mg/mL: [6]
0.10: S. agalactiae ATCC-13813 | [9] | [10]
0.8 mg/mL: [7]
50 mg/mL: Candida albicans (22972)

CCCCOP(=O)(O)OC[C@H]1O[C@@H](n2ccc(N(C)C)nc2=O)[C@H](OC)[C@@H]1O [LAK-021, (2R,3S,4R,5R)-5-(4-N,N-dimethylamino-2-oxopyrimidin-1(2H)-yl)-3-hydroxy-4-methoxy-tetrahydrofuran-2-methyl butyl phosphate]
1.56: [10] | A. baumannii ATCC-19606 | [11] | C. freundii CDC-0157 | E. cloacae ATCC BAA-2468 | E. coli MMX-8870 | [12] | K. pneumoniae ATCC-43816 | M. morganii CDC-0519 | P. mirabilis CDC-0155
1.25 mg/mL: Escherichia coli (25922)
> 50 mg/mL: Candida albicans (22972)
6.25: S. aureus ATCC -3591
0.78: S. agalactiae ATCC-13813 | [8] | S. pyogenes ATCC-49399 | C. striatum ATCC-6940 | E. coli ATCC-25922 | P. aeruginosa ATCC-27853
3.13: E. faecalis ATCC-29212 | E. faecalis MMX-3353 | E. faecium ATCC-35667 | E. faecium MMX-3355 | S. aureus ATCC-29213 | [9]
0.8 mg/mL: [7]
0.39: H. influenzae ATCC-49247
4.5 mg/mL: [6]
